From PubChem BioAssay AID1845198 (Molecular Pharmacology Branch, DTP, NCI, 2023)

System: 425362-245-T-J1 tumor spheroids, viability % test/control
Assay: Anticancer human tumor 425362-245-T-J1 patient-derived melanoma cell line growth inhibition
Conditions: spheroids with HUVEC and MSC; for IC50: curve of first compound; for viability, T/C: stronger effect = lower value
From the text: Multicellular complex tumor spheroid response to DNA repair inhibitors in combination with DNA-damaging drugs
This study explores the anticancer activities of DNA-damaging drugs and inhibitors of DNA damage repair, both as single agents and in combinations. Complex tumor spheroids comprised of malignant cells, endothelial cells and mesenchymal stem cells served as an in vitro model for human solid tumors. This model system incorporates physiologically relevant features and patient-derived or established malignant cell lines with clinically relevant genetic alterations from many tumor types. Twenty-six patient-derived or established malignant cell lines were evaluated representing sarcoma, melanoma, small cell lung cancer (SCLC), non-small cell lung cancer (NSCLC), as well as bladder, ovarian and pancreatic cancers. The concentration ranges selected for each drug and investigational agent were based upon clinically achievable concentrations if the clinical Cmax of the agent was known.
Compounds. The drugs and compounds olaparib (NSC753686), talazoparib (NSC767125), berzosertib (NSC777718), elimusertib (NSC800525), nedisertib (NSC802822), VX-984 (NSC792969), AZD-1390 (NSC803789), temozolomide (NSC362856), topotecan (NSC609699), trabectedin (NSC813783), staurosporine (NSC755774), and gemcitabine (NSC613327) were obtained from the National Cancer Institute (NCI) Developmental Therapeutics Program Chemical Repository. The FDA-approved anticancer drug set is available from the Developmental Therapeutics Program at https://dtp.cancer.gov/organization/dscb/obtaining/available_plates.htm. […] The stock solutions were prepared in dimethyl sulfoxide (DMSO, Sigma-Aldrich, St. Louis, MO, cat. D2650) at 400-fold the tested concentration and stored at -70 degrees C. Prior to their use, the stock solutions were diluted in fresh medium and the final DMSO concentration in the assay was 0.25% (v/v). All drugs and investigational agents were tested over a range starting from a high concentration at or near the clinical Cmax and decreasing in half-log increments. If the clinical Cmax for an agent had not been determined, the highest concentration tested was 10 microM.
Cell Lines. The patient-derived cancer cell (PDC) lines: 156681-154-R-J1-PDC, 283228-195-R-J1-PDC, 287954-098-R-J1-PDC, 292921-168-R-J2-PDC, 349418-098-R-PDC, 425362-245-T-J1-PDC, 556581-035-R-J1-PDC, and BL0293-F563-PDC were received from the NCI Patient-Derived Models Repository (PDMR, https://pdmr.cancer.gov). The established cell lines HS-SY-2 (RRID:CVCL_8719), MPNST, and SYO-1 (RRID:CVCL_7146) were obtained from the Sloan Kettering Institute. The alveolar soft parts sarcoma cell line ASPS-1 (RRID:CVCL_S738) was established at the NCI and grown from internal seed stocks. The following established cell lines were purchased from the American Type Culture Collection (ATCC, Manassas, VA): G-401 (ATCC, cat. CRL-1441, RRID:CVCL_0270), SW982 (ATCC, cat. HTB-93, RRID:CVCL_1734), VA-ES-BJ (ATCC, cat. CRL-2138, RRID:CVCL_1785), NCI-H719 (ATCC, cat. CRL-5837, RRID:CVCL_1582), NCI-H196 (ATCC, cat. CRL-5823, RRID:CVCL_1509), NCI-H841 (ATCC, cat. CRL-5845, RRID:CVCL_1595), NCI-H1618 (ATCC, cat. CRL-5879, RRID:CVCL_1480), NCI-H1876 (ATCC, cat. CRL-5902, RRID:CVCL_1503), DMS 114 (ATCC, cat. CRL-2066; RRID:CVCL_1174), NCI-H211 (ATCC, cat. CRL-5824; RRID:CVCL_1529), and SW 1271 (ATCC, cat. CRL-2177, RRID:CVCL_1716). The small cell lung cancer cell line COR-L88 was purchased from Sigma-Aldrich (cat. 92031917-1VL, RRID:CVCL_1141). The non-small cell lung cancer cell lines NCI-H226 (RRID:CVCL_1544) and NCI-H322M (RRID:CVCL_1557) were established at the NCI and grown from internal seed stocks. Pooled donor human umbilical vein endothelial cells (HUVEC, Lonza, cat. CC-2519) and human mesenchymal stem cells (hMSC, Lonza, cat. PT-2501) were purchased from Lonza (Walkersville, MD).
Cell Culture. All cells were maintained in an incubator at 37 degrees C and 5% CO2 with 95% humidity. […]
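Also: spheroids exposed to agents for 7 days.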
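For viability, T/C in this document: 100% = DMSO vehicle control viability.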

Cc1cc(C)c(CNC(=O)c2cc(-c3ccc(CN4CCOCC4)cc3)cc3c2cnn3C2CCCC2)c(=O)[nH]1 + CC[C@@]1(O)C(=O)OCc2c1cc1n(c2=O)Cc2cc3c(CN(C)C)c(O)ccc3nc2-1
IC50 (second compound 0.003 µM): 3210 nM | IC50 (second compound 0.00949 µM): 1960 nM | IC50 (second compound 0.03 µM): < 31.6 nM | IC50 (second compound 0.0949 µM): < 31.6 nM | IC50 (second compound 0.3 µM): < 31.6 nM | viability, T/C (second compound 0.003 µM, first compound 0.0316 µM): 103% | viability, T/C (second compound 0.003 µM, first compound 0.1 µM): 81.8% | viability, T/C (second compound 0.003 µM, first compound 0.316 µM): 84% | viability, T/C (second compound 0.003 µM, first compound 1 µM): 72.9% | viability, T/C (second compound 0.003 µM, first compound 3.16 µM): 53.1% | viability, T/C (second compound 0.003 µM, first compound 10 µM): 10.1% | viability, T/C (second compound 0.00949 µM, first compound 0.0316 µM): 81.9% | viability, T/C (second compound 0.00949 µM, first compound 0.1 µM): 75% | viability, T/C (second compound 0.00949 µM, first compound 0.316 µM): 79.8% | viability, T/C (second compound 0.00949 µM, first compound 1 µM): 54.1% | viability, T/C (second compound 0.00949 µM, first compound 3.16 µM): 45.2% | viability, T/C (second compound 0.00949 µM, first compound 10 µM): 16.8% | viability, T/C (second compound 0.03 µM, first compound 0.0316 µM): 32.9% | viability, T/C (second compound 0.03 µM, first compound 0.1 µM): 37.2% | viability, T/C (second compound 0.03 µM, first compound 0.316 µM): 35.6% | viability, T/C (second compound 0.03 µM, first compound 1 µM): 33.1% | viability, T/C (second compound 0.03 µM, first compound 3.16 µM): 11.7% | viability, T/C (second compound 0.03 µM, first compound 10 µM): 7.5% | viability, T/C (second compound 0.0949 µM, first compound 0.0316 µM): 6% | viability, T/C (second compound 0.0949 µM, first compound 0.1 µM): 6.44% | viability, T/C (second compound 0.0949 µM, first compound 0.316 µM): 4.34% | viability, T/C (second compound 0.0949 µM, first compound 1 µM): 5.8% | viability, T/C (second compound 0.0949 µM, first compound 3.16 µM): 5.25% | viability, T/C (second compound 0.0949 µM, first compound 10 µM): 6.46% | viability, T/C (second compound 0.3 µM, first compound 0.0316 µM): 1.9% | viability, T/C (second compound 0.3 µM, first compound 0.1 µM): 2.19% | viability, T/C (second compound 0.3 µM, first compound 0.316 µM): 2.16% | viability, T/C (second compound 0.3 µM, first compound 1 µM): 2.06% | viability, T/C (second compound 0.3 µM, first compound 3.16 µM): 2.3% | viability, T/C (second compound 0.3 µM, first compound 10 µM): 2.37%

Cc1sc2c(c1C)C(c1ccc(Cl)cc1)=NC(CC(=O)Nc1ccc(O)cc1)c1nnc(C)n1-2 (stereo not given) + CC[C@@]1(O)C(=O)OCc2c1cc1n(c2=O)Cc2cc3c(CN(C)C)c(O)ccc3nc2-1
IC50 (second compound 0.003 µM): 55 nM | IC50 (second compound 0.00949 µM): 52.3 nM | IC50 (second compound 0.03 µM): < 9.49 nM | IC50 (second compound 0.0949 µM): < 9.49 nM | IC50 (second compound 0.3 µM): < 9.49 nM | viability, T/C (second compound 0.003 µM, first compound 0.00949 µM): 90.7% | viability, T/C (second compound 0.003 µM, first compound 0.03 µM): 67.6% | viability, T/C (second compound 0.003 µM, first compound 0.0949 µM): 35% | viability, T/C (second compound 0.003 µM, first compound 0.3 µM): 7.09% | viability, T/C (second compound 0.003 µM, first compound 0.949 µM): 2.44% | viability, T/C (second compound 0.003 µM, first compound 3 µM): 1.89% | viability, T/C (second compound 0.00949 µM, first compound 0.00949 µM): 78.9% | viability, T/C (second compound 0.00949 µM, first compound 0.03 µM): 68.7% | viability, T/C (second compound 0.00949 µM, first compound 0.0949 µM): 30% | viability, T/C (second compound 0.00949 µM, first compound 0.3 µM): 9.43% | viability, T/C (second compound 0.00949 µM, first compound 0.949 µM): 2.81% | viability, T/C (second compound 0.00949 µM, first compound 3 µM): 2.08% | viability, T/C (second compound 0.03 µM, first compound 0.00949 µM): 36% | viability, T/C (second compound 0.03 µM, first compound 0.03 µM): 24.5% | viability, T/C (second compound 0.03 µM, first compound 0.0949 µM): 20.9% | viability, T/C (second compound 0.03 µM, first compound 0.3 µM): 8.2% | viability, T/C (second compound 0.03 µM, first compound 0.949 µM): 2.92% | viability, T/C (second compound 0.03 µM, first compound 3 µM): 1.49% | viability, T/C (second compound 0.0949 µM, first compound 0.00949 µM): 6.49% | viability, T/C (second compound 0.0949 µM, first compound 0.03 µM): 7.18% | viability, T/C (second compound 0.0949 µM, first compound 0.0949 µM): 5.96% | viability, T/C (second compound 0.0949 µM, first compound 0.3 µM): 2% | viability, T/C (second compound 0.0949 µM, first compound 0.949 µM): 1.05% | viability, T/C (second compound 0.0949 µM, first compound 3 µM): 1.03% | viability, T/C (second compound 0.3 µM, first compound 0.00949 µM): 2.2% | viability, T/C (second compound 0.3 µM, first compound 0.03 µM): 1.82% | viability, T/C (second compound 0.3 µM, first compound 0.0949 µM): 1.38% | viability, T/C (second compound 0.3 µM, first compound 0.3 µM): 1.33% | viability, T/C (second compound 0.3 µM, first compound 0.949 µM): 0.79% | viability, T/C (second compound 0.3 µM, first compound 3 µM): 0.59%
